Results: patent US20250011368A1, “DLL3 TARGETING PEPTIDES AND CONSTRUCTS THEREOF” (MARIANA ONCOLOGY INC., priority 2023, published 2025)
Numbered stars: 1 amine (or outer) side, 2 acyl side, 3 side chain; on linkers, the order of the positions; unused ones are H or OH. Bridge positions count the residues as written; N and C are the ends. Square brackets hold non-standard residues; d marks the D form. Peptide text beside a SMILES is read from it. * marks the point of attachment. ξ: configuration not given here. DOTA = O=C(O)CN1CCN(CC(=O)O)CCN(CC(=O)*)CCN(CC(=O)O)CC1; Trp(7-OMe) = COc1cccc2c(C[C@H](N)C(=O)O)c[nH]c12; Trp(7-Me) = Cc1cccc2c(C[C@H](N)C(=O)O)c[nH]c12; 2Nal = N[C@@H](Cc1ccc2ccccc2c1)C(=O)O; tBuAla = CC(C)(C)C[C@H](N)C(=O)O; 3Pal = N[C@@H](Cc1cccnc1)C(=O)O; 4Pal = N[C@@H](Cc1ccncc1)C(=O)O; NMeL = CN[C@@H](CC(C)C)C(=O)O; Chg = N[C@H](C(=O)O)C1CCCCC1; Tle = CC(C)(C)[C@H](N)C(=O)O; Lauroyl = CCCCCCCCCCCC(=O)*; CH2 = C([*:1])[*:2]; ξP = O=C(O)C1CCCN1

Target: T1, human DLL3 (Homo sapiens, UniProt Q9NYJ7)
T1 sequence (Q9NYJ7 27-618): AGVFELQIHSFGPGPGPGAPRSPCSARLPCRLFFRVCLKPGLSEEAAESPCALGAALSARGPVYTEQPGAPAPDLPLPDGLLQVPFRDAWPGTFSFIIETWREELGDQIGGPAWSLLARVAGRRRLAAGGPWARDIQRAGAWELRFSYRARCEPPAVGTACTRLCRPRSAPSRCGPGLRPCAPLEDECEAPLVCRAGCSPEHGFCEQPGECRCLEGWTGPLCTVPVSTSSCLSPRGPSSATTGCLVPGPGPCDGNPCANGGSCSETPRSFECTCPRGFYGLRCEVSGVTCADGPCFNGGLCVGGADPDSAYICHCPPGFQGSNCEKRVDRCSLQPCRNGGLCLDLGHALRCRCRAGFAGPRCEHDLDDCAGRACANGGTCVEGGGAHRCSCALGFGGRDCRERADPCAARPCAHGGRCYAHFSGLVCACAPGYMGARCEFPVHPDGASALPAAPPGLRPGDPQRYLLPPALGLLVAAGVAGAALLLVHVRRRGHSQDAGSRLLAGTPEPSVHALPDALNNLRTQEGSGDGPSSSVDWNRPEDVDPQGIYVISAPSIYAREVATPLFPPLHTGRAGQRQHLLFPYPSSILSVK
Assay: Affinity determination by Surface Plasmon Resonance (SPR)
Type: binding
Settings: 25° C., biotinylated human DLL3 immobilized on streptavidin sensor chip, 1:1 binding model; read-out: SPR KD
In short: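 Biotinylated human DLL3 was captured on a streptavidin chip with a reference surface. Compounds at several concentrations were injected at 100 μL/minute in phosphate buffer (137 mM NaCl, 2.7 mM KCl, 0.05% P20, 2% DMSO). Affinity and kinetics came from 1:1 model fits of the sensorgrams.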

SMILES	Kd [nM]
CC(=O)N[C@@H](Cc1c[nH]c2ccccc12)C(=O)N[C@H](C(=O)N[C@H](C(=O)N[C@H]1CSSC[C@@H](C(=O)N[C@@H](Cc2c[nH]c3ccccc23)C(=O)N2CCC[C@H]2C(=O)N[C@H](CCCCNC(=O)CN2CCN(CC(=O)O)CCN(CC(=O)O)CCN(CC(=O)O)CC2)C(N)=O)NC(=O)[C@H](CC(=O)O)NC(=O)[C@H](Cc2cnc[nH]2)NC(=O)[C@H](Cc2ccc3ccccc3c2)NC(=O)[C@H](CC(N)=O)NC(=O)[C@H](Cc2cccnc2)NC1=O)C(C)(C)C)[C@@H](C)O [compound 288, Ac-W-T-(Tbg)-C(3)-(3Pya)-N-(2Nal)-H-D-C(3)-W-P-[D-Lys(DOTA)]-NH2] (Ac-WT[Tle]C[3Pal]N[2Nal]HDCWP[dK](DOTA)-NH2; disulfide 4-10)	< 1
CC(=O)N[C@@H](Cc1c[nH]c2ccccc12)C(=O)N[C@H](C(=O)N[C@@H](CC(C)(C)C)C(=O)N[C@H]1CSSC[C@@H](C(=O)N[C@@H](Cc2c[nH]c3ccccc23)C(=O)N2CCC[C@H]2C(=O)N[C@H](CCCCNC(=O)CN2CCN(CC(=O)O)CCN(CC(=O)O)CCN(CC(=O)O)CC2)C(N)=O)NC(=O)[C@H](CC(=O)O)NC(=O)[C@H](Cc2cnc[nH]2)NC(=O)[C@H](Cc2ccc3ccccc3c2)NC(=O)[C@H](CC(N)=O)NC(=O)[C@H](Cc2cccnc2)NC1=O)[C@@H](C)O [compound 289, Ac-W-T-(t-Bu-Ala)-C(3)-(3Pya)-N-(2Nal)-H-D-C(3)-W-P-[D-Lys(DOTA)]-NH2] (Ac-WT[tBuAla]C[3Pal]N[2Nal]HDCWP[dK](DOTA)-NH2; disulfide 4-10)	< 1
CC(=O)N[C@@H](Cc1c[nH]c2ccccc12)C(=O)N[C@H](C(=O)N[C@H](C(=O)N[C@H]1CSSC[C@@H](C(=O)N[C@@H](Cc2c[nH]c3ccccc23)C(=O)N2CCC[C@H]2C(=O)N[C@H](CCCCNC(=O)CN2CCN(CC(=O)O)CCN(CC(=O)O)CCN(CC(=O)O)CC2)C(N)=O)NC(=O)[C@H](CC(=O)O)NC(=O)[C@H](Cc2cnc[nH]2)NC(=O)[C@H](Cc2ccc3ccccc3c2)NC(=O)[C@H](CC(N)=O)NC(=O)[C@H](Cc2ccncc2)NC1=O)C1CCCCC1)[C@@H](C)O [compound 290, Ac-W-T-(Chg)-C(3)-(4Pya)-N-(2Nal)-H-D-C(3)-W-P-[D-Lys(DOTA)]-NH2] (Ac-WT[Chg]C[4Pal]N[2Nal]HDCWP[dK](DOTA)-NH2; disulfide 4-10)	< 1
CC[C@H](C)[C@H](NC(=O)[C@@H](NC(=O)[C@H](Cc1c[nH]c2ccccc12)NC(C)=O)[C@@H](C)O)C(=O)N[C@H]1CSSC[C@@H](C(=O)N[C@@H](Cc2c[nH]c3ccccc23)C(=O)N2CCC[C@H]2C(=O)N[C@H](CCCCNC(=O)CN2CCN(CC(=O)O)CCN(CC(=O)O)CCN(CC(=O)O)CC2)C(N)=O)NC(=O)[C@H](CC(=O)O)NC(=O)[C@H](Cc2cnc[nH]2)NC(=O)[C@H](Cc2c[nH]c3c(C)cccc23)NC(=O)[C@H](CC(N)=O)NC(=O)[C@H](CC(N)=O)NC1=O [compound 295, Ac-W-T-I-C(3)-N-N-(7-Me-W)-H-D-C(3)-W-P-[D-Lys(DOTA)]-NH2] (Ac-WTICNN[Trp(7-Me)]HDCWP[dK](DOTA)-NH2; disulfide 4-10)	< 1
CC[C@H](C)[C@H](NC(=O)[C@@H](NC(=O)[C@H](Cc1c[nH]c2ccccc12)NC(C)=O)[C@@H](C)O)C(=O)N[C@H]1CSSC[C@@H](C(=O)N[C@@H](Cc2c[nH]c3ccccc23)C(=O)N2CCC[C@H]2C(=O)N[C@H](CCCCNC(=O)CN2CCN(CC(=O)O)CCN(CC(=O)O)CCN(CC(=O)O)CC2)C(N)=O)NC(=O)[C@H](CC(=O)O)NC(=O)[C@H](Cc2cnc[nH]2)NC(=O)[C@H](Cc2c[nH]c3c(OC)cccc23)NC(=O)[C@H](CC(N)=O)NC(=O)[C@H](CC(N)=O)NC1=O [compound 296, Ac-W-T-I-C(3)-N-N-(7-MeO-W)-H-D-C(3)-W-P-[D-Lys(DOTA)]-NH2] (Ac-WTICNN[Trp(7-OMe)]HDCWP[dK](DOTA)-NH2; disulfide 4-10)	< 1
CC[C@H](C)[C@H](NC(=O)[C@@H](NC(=O)[C@H](Cc1c[nH]c2ccccc12)NC(C)=O)[C@@H](C)O)C(=O)N[C@H]1CSSC[C@@H](C(=O)N[C@@H](Cc2c[nH]c3c(C)cccc23)C(=O)N2CCC[C@H]2C(=O)N[C@H](CCCCNC(=O)CN2CCN(CC(=O)O)CCN(CC(=O)O)CCN(CC(=O)O)CC2)C(N)=O)NC(=O)[C@H](CC(=O)O)NC(=O)[C@H](Cc2cnc[nH]2)NC(=O)[C@H](Cc2c[nH]c3ccccc23)NC(=O)[C@H](CC(N)=O)NC(=O)[C@H](CC(N)=O)NC1=O [compound 298, Ac-W-T-I-C(3)-N-N-W-H-D-C(3)-(7-Me-W)-P-[D-Lys(DOTA)]-NH2] (Ac-WTICNNWHDC[Trp(7-Me)]P[dK](DOTA)-NH2; disulfide 4-10)	< 1
CC[C@H](C)[C@H](NC(=O)[C@@H](NC(=O)[C@H](Cc1c[nH]c2ccccc12)NC(C)=O)[C@@H](C)O)C(=O)N[C@H]1CSSC[C@@H](C(=O)N[C@@H](Cc2c[nH]c3c(OC)cccc23)C(=O)N2CCC[C@H]2C(=O)N[C@H](CCCCNC(=O)CN2CCN(CC(=O)O)CCN(CC(=O)O)CCN(CC(=O)O)CC2)C(N)=O)NC(=O)[C@H](CC(=O)O)NC(=O)[C@H](Cc2cnc[nH]2)NC(=O)[C@H](Cc2c[nH]c3ccccc23)NC(=O)[C@H](CC(N)=O)NC(=O)[C@H](CC(N)=O)NC1=O [compound 299, Ac-W-T-I-C(3)-N-N-W-H-D-C(3)-(7-MeO-W)-P-[D-Lys(DOTA)]-NH2] (Ac-WTICNNWHDC[Trp(7-OMe)]P[dK](DOTA)-NH2; disulfide 4-10)	< 1
CC[C@H](C)[C@H](NC(=O)[C@@H](NC(=O)[C@H](Cc1c[nH]c2ccccc12)NC(C)=O)[C@@H](C)O)C(=O)N[C@H]1CSCSC[C@@H](C(=O)N[C@@H](Cc2c[nH]c3ccccc23)C(=O)N2CCCC2C(=O)N[C@@H](CCCCNC(=O)CN2CCN(CC(=O)O)CCN(CC(=O)O)CCN(CC(=O)O)CC2)C(N)=O)NC(=O)[C@H](CC(=O)O)NC(=O)[C@H](Cc2cnc[nH]2)NC(=O)[C@H](Cc2ccc3ccccc3c2)NC(=O)[C@H](CC(N)=O)NC(=O)[C@H](CC(N)=O)NC1=O (stereo partly drawn) [compound 329, Ac-W-T-I-C(1)-N-N-(2Nal)-H-D-C(1)-W-P-[L-Lys(DOTA)]-NH2] (Ac-WTICNN[2Nal]HDCW[ξP]K(DOTA)-NH2; linker 4-10 via CH2)	< 1
CC[C@H](C)[C@H](NC(=O)[C@@H](NC(=O)[C@H](Cc1c[nH]c2c(C)cccc12)NC(C)=O)[C@@H](C)O)C(=O)N[C@H]1CSCSC[C@@H](C(=O)N[C@@H](Cc2c[nH]c3ccccc23)C(=O)N2CCCC2C(=O)N[C@H](CCCCNC(=O)CN2CCN(CC(=O)O)CCN(CC(=O)O)CCN(CC(=O)O)CC2)C(N)=O)NC(=O)[C@H](CC(=O)O)NC(=O)[C@H](Cc2cnc[nH]2)NC(=O)[C@H](Cc2ccc3ccccc3c2)NC(=O)[C@H](CC(N)=O)NC(=O)[C@H](CC(N)=O)NC1=O (stereo partly drawn) [compound 330, Ac-7MeW-T-I-C(1)-N-N-(2Nal)-H-D-C(1)-W-P-[D-Lys(DOTA)]-NH2] (Ac-[Trp(7-Me)]TICNN[2Nal]HDCW[ξP][dK](DOTA)-NH2; linker 4-10 via CH2)	< 1
CC[C@H](C)[C@H](NC(=O)[C@@H](NC(=O)[C@H](Cc1c[nH]c2c(OC)cccc12)NC(C)=O)[C@@H](C)O)C(=O)N[C@H]1CSSC[C@@H](C(=O)N[C@@H](Cc2c[nH]c3ccccc23)C(=O)N2CCC[C@H]2C(=O)N[C@H](CCCCNC(=O)CN2CCN(CC(=O)O)CCN(CC(=O)O)CCN(CC(=O)O)CC2)C(N)=O)NC(=O)[C@H](CC(=O)O)NC(=O)[C@H](Cc2cnc[nH]2)NC(=O)[C@H](Cc2ccc3ccccc3c2)NC(=O)[C@H](CC(N)=O)NC(=O)[C@H](CC(N)=O)NC1=O [compound 344, Ac-(7MeO-Trp)-T-I-C(3)-N-N-W-H-D-C(3)-W-P-[D-Lys(DOTA)]-CONH2] (Ac-[Trp(7-OMe)]TICNN[2Nal]HDCWP[dK](DOTA)-NH2; disulfide 4-10)	< 1
CC[C@H](C)[C@H](NC(=O)[C@@H](NC(=O)[C@H](Cc1c[nH]c2ccccc12)NC(C)=O)[C@@H](C)O)C(=O)N[C@H]1CSSC[C@@H](C(=O)N[C@@H](Cc2c[nH]c3ccccc23)C(=O)N(C)[C@@H](CC(C)C)C(=O)N[C@H](CCCCNC(=O)CN2CCN(CC(=O)O)CCN(CC(=O)O)CCN(CC(=O)O)CC2)C(N)=O)NC(=O)[C@H](CC(=O)O)NC(=O)[C@H](Cc2cnc[nH]2)NC(=O)[C@H](Cc2c[nH]c3ccccc23)NC(=O)[C@H](CC(N)=O)NC(=O)[C@H](CC(N)=O)NC1=O [compound 345, Ac-W-T-I-C(3)-N-N-W-H-D-C(3)-W-NmeL-[D-Lys(DOTA)]-NH2] (Ac-WTICNNWHDCW[NMeL][dK](DOTA)-NH2; disulfide 4-10)	1 to 10
CCCCCCCCCCCC(=O)NCCCC[C@H](NC(=O)[C@@H](NC(=O)[C@H](Cc1c[nH]c2ccccc12)NC(C)=O)[C@@H](C)O)C(=O)N[C@H]1CSSC[C@@H](C(=O)N[C@@H](Cc2c[nH]c3ccccc23)C(=O)N2CCC[C@H]2C(=O)N[C@H](CCCCNC(=O)CN2CCN(CC(=O)O)CCN(CC(=O)O)CCN(CC(=O)O)CC2)C(N)=O)NC(=O)[C@H](CC(=O)O)NC(=O)[C@H](Cc2cnc[nH]2)NC(=O)[C@H](Cc2c[nH]c3ccccc23)NC(=O)[C@H](CC(N)=O)NC(=O)[C@H](CC(N)=O)NC1=O [compound 346, Ac-W-T-K(C12)-C(3)-N-N-W-H-D-C(3)-W-P-[D-Lys(DOTA)]-NH2] (Ac-WTK(Lauroyl)CNNWHDCWP[dK](DOTA)-NH2; disulfide 4-10)	10 to 100
